Measured values published in patent publication US20230027066A1 (Urovant Sciences GmbH, priority 2019, published 2023).

Test system: men and women with overactive bladder
Assay: Phase 3 study of vibegron 75 mg vs placebo and tolterodine ER 4 mg, 12 weeks, efficacy (voiding and urine volume diary)
Type: in vivo, human
Conditions: for Daily Urgency Episodes: Vibegron - Placebo LS Means Difference: 75 mg; for Daily Urgency Episodes: Reduction from Baseline at Week 12, LS Mean: vibegron 75 mg, tolterodine ER 4 mg; for Patients with 100% Reduction in UUI from Baseline to Week 12, Unadjusted n (%) / Patients with at Least 75% Reduction in UUI from Baseline to Week 12, Unadjusted n (%) / Patients with 100% Reduction in UUI from Baseline to Week 12, Adjusted n (%) / Patients with at Least 75% Reduction in UUI from Baseline to Week 12, Adjusted n (%): FAS-I; for Patients with 100% Reduction in UUI from Baseline to Week 12, Adjusted n (%) / Patients with at Least 75% Reduction in UUI from Baseline to Week 12, Adjusted n (%): MI for missing values; for 75% UUI responders, Active-Placebo CMH Difference / 100% UUI responders, Active-Placebo CMH Difference: stratified by sex; for Urgency, Change from Baseline LS Mean / Urgency, LS Mean Difference active - Placebo: baseline to Week 12
Method: Enrollment of patients included individuals with OAB Wet (those with UUI, the involuntary loss of urine accompanied by urgency) and OAB Dry (those without UUI). A total of 1,518 patients were randomized across 215 study sites into one of three groups for a 12-week treatment period.
The study consisted of a Screening Period (1 to 5 weeks), a single-blind Run-in Period (2 weeks), a randomized double-blind Treatment Period (12 weeks), and a Follow-up Period (4 weeks).
Tolterodine ER 4 mg was the active control. […] Between the Baseline and Week 12 Visits, patients had study assessments at Week 4 and Week 8.
The Patient Voiding Diary was used by participants (via the eDiary or paper Diary) to record the frequency of daily OAB symptoms including all micturitions, urgency, incontinence, and main reason for incontinence by selecting the respective box for each symptom occurring during the course of a given day and night.
Urine volume data were collected separately by patients using the Urine Volume component of the eDiary, or the paper Urine Volume Chart. The Urine Volume Chart is a tool used in clinical practice and clinical investigation to assess voiding functions over a 24-hour period and is regarded as a useful instrument in the investigation of patients with voiding symptoms. Urine volume may be collected during any one (1) of the 7 Diary Days prior to the visit, and it should be recorded for ˜24 hours starting from the time the patient gets up for the day and continues until the time the patient gets up for the day on the next day.
For the purpose of this study, the number of micturitions was defined as the number of times a patient has voided in the toilet as indicated on the Patient Voiding Diary. Average daily micturitions were calculated using the daily entries in the Patient Voiding Diary, which was completed over the 7 days prior to each study visit. Average daily number of micturitions were calculated as the total number of micturitions that occurred on a Complete Diary Day divided by the number of Complete Diary Days in the Patient Voiding Diary. A complete diary day required confirmation by the patient in the Patient Voiding Diary that all voids and leakages had been recorded for the diary day. Baseline was defined as the average number of micturitions occurring during the last evaluable diary prior to the Baseline Visit.
The number of UUI episodes was defined as the number of times a patient had checked “urge” as the reason for accidental urine leakage. Average daily UUI episodes at each study visit were calculated in the same manner as described above for the micturition endpoint. The UUI endpoint were analyzed using only OAB Wet patients.
For the analysis of the co-primary endpoints (change from baseline in average number of daily micturitions at Week 12 and change from baseline in average number of daily urge urinary incontinence episodes at Week 12, and placebo adjustment of each), a mixed model for repeated measure (MMRM) with restricted maximum likelihood estimation was used. This model corrects for dropout and accounts for the fact that measurements taken on the same patient over time tend to be correlated by using all available information on patients within the same covariate set to derive an estimate of the treatment effect for a dropout-free population. The analysis model for each efficacy endpoint includes terms for treatment, visit, OAB Type (Wet vs Dry), Sex (Female vs Male), Region (US vs Rest of World), baseline score, and interaction of visit by treatment.
Primary inferences were drawn from treatment differences for the changes from baseline derived from the MMRM models at Week 12. As part of secondary objectives, the treatment differences for each post baseline visit were also derived using the same MMRM model. […]

[1] = 50% Total Incontinence Responders, Week 2
[2] = 50% Total Incontinence Responders, Week 4
[3] = 50% Total Incontinence Responders, Week 8
[4] = 50% Total Incontinence Responders, Week 12
[5] = Dry population, baseline to Week 2

O=C(Nc1ccc(C[C@@H]2CC[C@H]([C@H](O)c3ccccc3)N2)cc1)[C@@H]1CCc2nccc(=O)n21 [Vibegron, (6S)-N-[4-[[(2S,5R)−5-[(R)-hydroxy(phenyl)methyl]pyrrolidin−2-yl]methyl]phenyl]−4-oxo−7,8-dihydro−6H-pyrrolo[1,2-a]pyrimidine−6-carboxamide]
Average Volume Voided per Micturition, Mean (SD) [1]: 173.8 (76.89) | Average daily number of urgency episodes, Mean (SD) [1]: 5.62 (3.792) | Change from Baseline in Average Daily Number of Urgency Episodes, LS Mean (SE) [1]: −2.1 (0.15) | Change from Baseline in Average Volume Voided per Micturition, LS Mean [1]: 16.1 (3.79) | Change from baseline in Percent Dry Diary Days, LS Mean [1]: 29.0 (2.11) Percent | Percent Dry Diary Days, Mean (SD) [1]: 34.64 (36.322) Percent | Average Volume Voided per Micturition, Mean (SD) [2]: 176.5 (81.31) | Average daily number of urgency episodes, Mean (SD) [2]: 5.01 (3.889) | Change from Baseline in Average Daily Number of Urgency Episodes, LS Mean (SE) [2]: −2.6 (0.16) | Change from Baseline in Average Volume Voided per Micturition, LS Mean [2]: 18.0 (3.99) | Change from baseline in Percent Dry Diary Days, LS Mean [2]: 37.8 (2.41) Percent | Percent Dry Diary Days, Mean (SD) [2]: 43.31 (41.468) Percent | Average Volume Voided per Micturition, Mean (SD) [3]: 182.0 (84.53) | Average daily number of urgency episodes, Mean (SD) [3]: 4.25 (3.833) | Change from Baseline in Average Daily Number of Urgency Episodes, LS Mean (SE) [3]: −3.4 (0.19) | Change from Baseline in Average Volume Voided per Micturition, LS Mean [3]: 24.2 (4.12) | Change from baseline in Percent Dry Diary Days, LS Mean [3]: 47.4 (2.45) Percent | Percent Dry Diary Days, Mean (SD) [3]: 53.01 (39.898) Percent | Average Volume Voided per Micturition, Mean (SD) [4]: (186.2 (84.24) | Average daily number of urgency episodes, Mean (SD) [4]: 3.67 (3.481) | Change from Baseline in Average Daily Number of Urgency Episodes, LS Mean (SE) [4]: −4.0 (0.20) | Change from Baseline in Average Volume Voided per Micturition, LS Mean [4]: 27.6 (4.24) | Change from baseline in Percent Dry Diary Days, LS Mean [4]: 55.5 (2.37) Percent | Percent Dry Diary Days, Mean (SD) [4]: 61.0 (37.857) Percent | Average Volume Voided per Micturition, Mean (SD) (75% UUI Responders, Week 2): 174.3 (77.29) | Average daily number of urgency episodes, Mean (SD) (75% UUI Responders, Week 2): 5.40 (3.762) | Change from Baseline in Average Volume Voided per Micturition, LS Mean (75% UUI Responders, Week 2): 17.7 (4.28) | Change from baseline in average daily number of urgency episodes, LS Mean (75% UUI Responders, Week 2): −2.2 (0.17) | Average Volume Voided per Micturition, Mean (SD) (75% UUI Responders, Week 4): 178.1 (82.51) | Average daily number of urgency episodes, Mean (SD) (75% UUI Responders, Week 4): 4.72 (3.838) | Change from Baseline in Average Volume Voided per Micturition, LS Mean (75% UUI Responders, Week 4): 20.7 (4.52) | Change from baseline in average daily number of urgency episodes, LS Mean (75% UUI Responders, Week 4): −2.7 (0.19) | Average Volume Voided per Micturition, Mean (SD) (75% UUI Responders, Week 8): 184.2 (87.70) | Average daily number of urgency episodes, Mean (SD) (75% UUI Responders, Week 8): 3.95 (3.742) | Change from Baseline in Average Volume Voided per Micturition, LS Mean (75% UUI Responders, Week 8): 27.2 (4.67) | Change from baseline in average daily number of urgency episodes, LS Mean (75% UUI Responders, Week 8): −3.5 (0.21) | Average Volume Voided per Micturition, Mean (SD) (75% UUI Responders, Week 12): 185.0 (87.89) | Average daily number of urgency episodes, Mean (SD) (75% UUI Responders, Week 12): 3.31 (3.433) | Change from Baseline in Average Volume Voided per Micturition, LS Mean (75% UUI Responders, Week 12): 26.9 (4.87) | Change from baseline in average daily number of urgency episodes, LS Mean (75% UUI Responders, Week 12): −4.2 (0.23) | Daily Urgency Episodes: Vibegron - Placebo LS Means Difference (Age ≥65 years, Week 12): −1.0 | Daily Urgency Episodes: Reduction from Baseline at Week 12, LS Mean (Age ≥65 years): −2.7 | Daily Urgency Episodes: Vibegron - Placebo LS Means Difference (Age ≥75 years, Week 12): −1.7 | Daily Urgency Episodes: Reduction from Baseline at Week 12, LS Mean (Age ≥75 years): −2.6 | Daily Urgency Episodes: Vibegron - Placebo LS Means Difference (All patients, Week 12): −0.7 | Daily Urgency Episodes: Reduction from Baseline at Week 12, LS Mean (All patients): −2.7 | Patients with 100% Reduction in UUI from Baseline to Week 12, Unadjusted n (%) (Baseline Number of UUI <3): 79 (35.4) n (%) | Patients with at Least 75% Reduction in UUI from Baseline to Week 12, Unadjusted n (%) (Baseline Number of UUI <3): 112 (50.2) n (%) | Patients with 100% Reduction in UUI from Baseline to Week 12, Adjusted n (%) (Baseline Number of UUI <3): 68 (30.4) n (%) | Patients with at Least 75% Reduction in UUI from Baseline to Week 12, Adjusted n (%) (Baseline Number of UUI <3): 101 (45.5) n (%) | 75% UUI responders, Active-Placebo CMH Difference (Baseline Number of UUI <3): 7.1 | 100% UUI responders, Active-Placebo CMH Difference (Baseline Number of UUI <3): 2.8 | Patients with 100% Reduction in UUI from Baseline to Week 12, Unadjusted n (%) (Baseline Number of UUI ≥3): 37 (20.6) n (%) | Patients with at Least 75% Reduction in UUI from Baseline to Week 12, Unadjusted n (%) (Baseline Number of UUI ≥3): 99 (55.0) n (%) | Patients with 100% Reduction in UUI from Baseline to Week 12, Adjusted n (%) (Baseline Number of UUI ≥3): 34 (19.1) n (%) | Patients with at Least 75% Reduction in UUI from Baseline to Week 12, Adjusted n (%) (Baseline Number of UUI ≥3): 98 (54.4) n (%) | 75% UUI responders, Active-Placebo CMH Difference (Baseline Number of UUI ≥3): 29.4 | 100% UUI responders, Active-Placebo CMH Difference (Baseline Number of UUI ≥3): 12.3 | Urgency, Change from Baseline LS Mean (Dry population, Age <65): −2.9 (64) | Urgency, LS Mean Difference active - Placebo (Dry population, Age <65): −1.4 | Urgency, Change from Baseline LS Mean (Dry population, Age ≥65): −2.2 (45) | Urgency, LS Mean Difference active - Placebo (Dry population, Age ≥65): −0.5 | Average daily number of urgency episodes, Mean (SD) (Dry population, Week 2): 6.98 (4.732) | Change from baseline in average daily number of urgency episodes, LS Mean (Dry population, Week 2): −1.5 (0.24) | Urgency episodes, Active - Placebo LS Mean Difference (Dry population, Week 2): −0.8 (0.35) | Average daily number of urgency episodes, Mean (SD) (Dry population, Week 4): 6.80 (4.667) | Change from baseline in average daily number of urgency episodes, LS Mean (Dry population, Week 4): −1.8 (0.26) | Urgency episodes, Active - Placebo LS Mean Difference (Dry population, Week 4): −0.9 (0.37) | Average daily number of urgency episodes, Mean (SD) (Dry population, Week 8): 6.39 (4.627) | Change from baseline in average daily number of urgency episodes, LS Mean (Dry population, Week 8): −2.2 (0.30) | Urgency episodes, Active - Placebo LS Mean Difference (Dry population, Week 8): −1.0 (0.44) | Average daily number of urgency episodes, Mean (SD) (Dry population, Week 12): 6.17 (4.958) | Change from baseline in average daily number of urgency episodes, LS Mean (Dry population, Week 12): −2.6 (0.33) | Urgency episodes, Active - Placebo LS Mean Difference (Dry population, Week 12): −1.0 (0.47) | Patients with at Least 50% Reduction in Urgency Episodes, Adjusted (%) [5]: 18.1% | Patients with at Least 50% Reduction in Urgency Episodes, Adjusted n [5]: 22 | Patients with at Least 50% Reduction in Urgency Episodes, Unadjusted (%) [5]: 18.7% | Patients with at Least 50% Reduction in Urgency Episodes, Unadjusted n [5]: 23 | Urgency 50% responders, Active - Placebo CMH Difference [5]: 4.7 | Patients with at Least 50% Reduction in Urgency Episodes, Adjusted (%) (Dry population, baseline to Week 4): 22.4%
